Legend:
Assay type in all cases: in vivo
[1] = tested on: Alopecurus myosuroides; assay: Greenhouse pre-emergence weed control, blackgrass; settings: for Weed Control (20 DAT) ALOMY: vs untreated check
Description: (§1) Seeds of the monocotyledonous and dicotyledonous test plants are separately mixed with potting soil and planted on top of approximately one inch of soil in separate pint cups. After planting, the cups are subjected to the following treatments:
(§2) Technical TTP (treatment H) is applied as a dispersion in acetone using a single-nozzle overhead track pneumatic sprayer, while granular or powder formulations (treatments I-K) are applied by shaking the solid granules or powder directly and evenly onto the soil surface.
(§3) The treated cups are then placed on greenhouse benches, watered and cared for in accordance with conventional greenhouse procedures. Twenty days after treatment (DAT), the seedling plants are examined, and the % weed control as compared to untreated check is recorded (Table I).

[2] = tested on: Lolium perenne; assay: Greenhouse pre-emergence weed control, ryegrass; settings: vs untreated check
Description: as §1, §2, §3

[3] = tested on: Setaria viridis; assay: Greenhouse pre-emergence weed control, green foxtail; settings: vs untreated check
Description: as §1, §2, §3

[4] = tested on: Galium aparine; assay: Greenhouse pre-emergence weed control, Galium; settings: for Weed Control (20 DAT) GALAP: vs untreated check
Description: as §1, §2, §3

[5] = tested on: Matricaria inodora vulgare; assay: Greenhouse pre-emergence weed control, Matricaria; settings: vs untreated check
Description: as §1, §2, §3

[6] = tested on: Papaver rhoeas; assay: Greenhouse pre-emergence weed control, poppy; settings: vs untreated check
Description: as §1, §2, §3

[7] = tested on: Veronica persica; assay: Greenhouse pre-emergence weed control, Veronica; settings: vs untreated check
Description: as §1, §2, §3

[8] = tested on: Hordeum vulgare (variety Mammut); assay: Crop phytotoxicity, winter barley (variety Mammut); settings: assessed visually
Description: as §1, §2
The treated cups are then placed on greenhouse benches, watered and cared for in accordance with conventional greenhouse procedures. […]

[9] = tested on: Triticum aestivum (variety Kanzler); assay: Crop phytotoxicity, winter wheat (variety Kanzler); settings: assessed visually
Description: as §1, §2, §3

FC(F)(F)c1ccc(-c2nccc(Oc3cccc(C(F)(F)F)c3)n2)cc1 [H, 4-(3-trifluoromethylphenoxy)-2-(4-trifluoromethylphenyl)-pyrimidine]
Weed Control (20 DAT) ALOMY ([1]; 0.060 kg/ha): 22.5% | Weed Control (20 DAT) ALOMY ([1]; 0.120 kg/ha): 77.5% | Weed Control (20 DAT) ALOMY ([1]; 0.240 kg/ha): 98.5% | Weed Control (20 DAT) ALOMY ([1]; 0.480 kg/ha): 99.0% | Rate required to control Alopecurus ([1]; greenhouse): 240 g/ha | Weed Control (20 DAT) LOLPE ([2]; 0.060 kg/ha): 91.5% | Weed Control (20 DAT) LOLPE ([2]; 0.120 kg/ha): 98.5% | Weed Control (20 DAT) LOLPE ([2]; 0.240 kg/ha): 99.0% | Weed Control (20 DAT) LOLPE ([2]; 0.480 kg/ha): 99.0% | Weed Control (20 DAT) SETVI ([3]; 0.060 kg/ha): 96.5% | Weed Control (20 DAT) SETVI ([3]; 0.120 kg/ha): 100.0% | Weed Control (20 DAT) SETVI ([3]; 0.240 kg/ha): 100.0% | Weed Control (20 DAT) SETVI ([3]; 0.480 kg/ha): 100.0% | Weed Control (20 DAT) GALAP ([4]; 0.060 kg/ha): 67.5% | Weed Control (20 DAT) GALAP ([4]; 0.120 kg/ha): 72.5% | Weed Control (20 DAT) GALAP ([4]; 0.240 kg/ha): 98.0% | Weed Control (20 DAT) GALAP ([4]; 0.480 kg/ha): 98.0% | Rate required to control Galium ([4]; greenhouse): 240 g/ha | Weed Control (20 DAT) MATIN ([5]; 0.060 kg/ha): 98.5% | Weed Control (20 DAT) MATIN ([5]; 0.120 kg/ha): 99.0% | Weed Control (20 DAT) MATIN ([5]; 0.240 kg/ha): 99.0% | Weed Control (20 DAT) MATIN ([5]; 0.480 kg/ha): 100.0% | Weed Control (20 DAT) PAPRH ([6]; 0.060 kg/ha): 99.5% | Weed Control (20 DAT) PAPRH ([6]; 0.120 kg/ha): 99.5% | Weed Control (20 DAT) PAPRH ([6]; 0.240 kg/ha): 100.0% | Weed Control (20 DAT) PAPRH ([6]; 0.480 kg/ha): 100.0% | Weed Control (20 DAT) VERPE ([7]; 0.060 kg/ha): 99.5% | Weed Control (20 DAT) VERPE ([7]; 0.120 kg/ha): 100.0% | Weed Control (20 DAT) VERPE ([7]; 0.240 kg/ha): 100.0% | Weed Control (20 DAT) VERPE ([7]; 0.480 kg/ha): 100.0% | Crop Phytotoxicity 11 DAT HORVWM ([8]; 0.060 kg/ha): 20.0 | Crop Phytotoxicity 20 DAT HORVWM ([8]; 0.060 kg/ha): 15.0 | Crop Phytotoxicity 11 DAT HORVWM ([8]; 0.120 kg/ha): 40.0 | Crop Phytotoxicity 20 DAT HORVWM ([8]; 0.120 kg/ha): 25.0 | Crop Phytotoxicity 11 DAT HORVWM ([8]; 0.240 kg/ha): 42.5 | Crop Phytotoxicity 20 DAT HORVWM ([8]; 0.240 kg/ha): 40.0 | Crop Phytotoxicity 11 DAT HORVWM ([8]; 0.480 kg/ha): 47.5 | Crop Phytotoxicity 20 DAT HORVWM ([8]; 0.480 kg/ha): 45.0 | Crop Phytotoxicity 11 DAT TRZAWK ([9]; 0.060 kg/ha): 1.0 | Crop Phytotoxicity 20 DAT TRZAWK ([9]; 0.060 kg/ha): 0.5 | Crop Phytotoxicity 11 DAT TRZAWK ([9]; 0.120 kg/ha): 2.5 | Crop Phytotoxicity 20 DAT TRZAWK ([9]; 0.120 kg/ha): 1.0 | Crop Phytotoxicity 11 DAT TRZAWK ([9]; 0.240 kg/ha): 6.5 | Crop Phytotoxicity 20 DAT TRZAWK ([9]; 0.240 kg/ha): 4.5 | Crop Phytotoxicity 11 DAT TRZAWK ([9]; 0.480 kg/ha): 14.0 | Crop Phytotoxicity 20 DAT TRZAWK ([9]; 0.480 kg/ha): 10.0
